Data taken from patent publication US11464770B2, “Anticancer pharmaceutical composition” (NATIONAL CANCER CENTER, priority 2016, dated 2022).
Where two headings read alike, the source gives them in different places.

Test system: blood cancer cell lines (e.g. HL-60, Jurkat, Raji, Ramos, Daudi, MOLT-4)
Assay: Cell based assay, cell viability (CellTiter-Glo), blood cancer cell lines
Conditions: Homo sapiens
Procedure, shortened: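 Each commercial line was plated and allowed 24 h to settle at constant temperature. Compound exposure ran 72 h at final concentrations spanning 0 to 2 μM. Cell viability was then determined by luminescent ATP detection.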

[1] = MV4-11, blood cancer cell line MV-4-11, 72 hours, read-out: IC50, MV-4-11
[2] = blood cancer cell line Daudi, 72 hours, read-out: IC50, Daudi
[3] = blood cancer cell line HL-60, 72 hours, read-out: IC50, HL-60
[4] = blood cancer cell line Jurkat, 72 hours, read-out: IC50, Jurkat
[5] = blood cancer cell line MOLT-4, 72 hours, read-out: IC50, MOLT-4
[6] = blood cancer cell line Raji, 72 hours, read-out: IC50, Raji
[7] = blood cancer cell line Ramos (RA 1), 72 hours, read-out: IC50, Ramos (RA 1)
[8] = blood cancer cell line U-937, 72 hours, read-out: IC50, U-937

SMILES	IC50 [1]	IC50 [2]	IC50 [3]	IC50 [4]	IC50 [5]	IC50 [6]	IC50 [7]	IC50 [8]
CC(=O)c1c([S+]([O-])Cc2ccc(C(F)(F)F)o2)[nH]c2c(Br)ccc(Cl)c2c1=O (centres unmarked) [Compound 72, 3-acetyl-8-bromo-5-chloro-2-(((5-(trifluoromethyl)furan-2-yl)methyl)sulfinyl)quinolin-4(1H)-one]	1120 nM	1600 nM	1300 nM	780 nM	1050 nM	940 nM	1370 nM	970 nM
CC(=O)c1c([S+]([O-])Cc2c(F)cccc2Cl)[nH]c2c(Br)ccc(Cl)c2c1=O (centres unmarked) [Compound 74, 3-acetyl-8-bromo-5-chloro-2-((2-chloro-6-fluorobenzyl)sulfinyl)quinolin-4(1H)-one]	1340 nM	> 2000 nM	1980 nM	> 2000 nM	1710 nM	> 2000 nM	> 2000 nM	> 2000 nM
COc1cc(S(F)(F)(F)(F)F)ccc1C[S+]([O-])c1[nH]c2c(Br)ccc(Cl)c2c(=O)c1C(C)=O (centres unmarked) [Compound 75, 3-acetyl-8-bromo-5-chloro-2-((2-methoxy-4-(pentafluoro--sulfanyl)benzyl)sulfinyl)quinolin-4(1H)-one]	> 2000 nM	1260 nM	> 2000 nM	1090 nM	1280 nM	1160 nM	> 2000 nM	> 2000 nM
CC(=O)c1c([S+]([O-])Cc2cc(F)cc(S(F)(F)(F)(F)F)c2)[nH]c2c(Br)ccc(Cl)c2c1=O (centres unmarked) [Compound 76, 3-acetyl-8-bromo-5-chloro-2-((3-fluoro-5-(pentafluoro--sulfanyl)benzyl)sulfinyl)quinolin-4(1H)-one]	> 2000 nM	1660 nM	> 2000 nM	1200 nM	1620 nM	1350 nM	> 2000 nM	> 2000 nM
CC(=O)c1c([S+]([O-])Cc2cccnc2)[nH]c2c(Br)ccc(Cl)c2c1=O (centres unmarked) [Compound 84, 3-acetyl-8-bromo-5-chloro-2-((pyridin-3-ylmethyl)sulfinyl)quinolin-4(1H)-one]	820 nM	1120 nM	1480 nM	980 nM	970 nM	1500 nM	1000 nM	1480 nM
Cc1cc(C[S+]([O-])c2[nH]c3c(Cl)ccc(Cl)c3c(=O)c2C(=O)C(C)C)no1 (centres unmarked) [Compound 86, 5,8-dichloro-3-isobutyryl-2-(((5-methylisoxazol-3-yl)methyl)sulfinyl)quinolin-4(1H)-one]	710 nM	650 nM	1380 nM	550 nM	1010 nM	820 nM	460 nM	1230 nM
COC(=O)c1ccc(C[S+]([O-])c2[nH]c3c(Cl)ccc(Cl)c3c(=O)c2C(C)=O)o1 (centres unmarked) [Compound 89, methyl 5-(((3-acetyl-5,8-dichloro-4-oxo-1,4-dihydroquinolin-2-yl)sulfinyl)methyl)furan-2-carboxylate]	1750 nM	> 2000 nM	> 2000 nM	1380 nM	> 2000 nM	> 2000 nM	1710 nM	> 2000 nM

Next, values leading:

IC50 [1]	IC50 [2]	IC50 [3]	IC50 [4]	IC50 [5]	IC50 [6]	IC50 [7]	IC50 [8]	SMILES
1560 nM	> 2000 nM	1990 nM	1010 nM	1380 nM	1150 nM	> 2000 nM	> 2000 nM	COc1cc(C[S+]([O-])c2[nH]c3c(Br)ccc(Cl)c3c(=O)c2C(C)=O)cc(OC)c1 (centres unmarked) [Compound 59, 3-acetyl-8-bromo-5-chloro-2-((3,5-dimethoxybenzyl)sulfinyl)quinolin-4(1H)-one]
> 2000 nM	> 2000 nM	> 2000 nM	1270 nM	1630 nM	> 2000 nM	> 2000 nM	> 2000 nM	CC(=O)c1c([S+]([O-])Cc2ccc(C(C)(C)C)cc2)[nH]c2c(Br)ccc(Cl)c2c1=O (centres unmarked) [Compound 60, 3-acetyl-8-bromo-2-((4-(tert-butyl)benzyl)sulfinyl)-5-chloroquinolin-4(1H)-one]
1120 nM	> 2000 nM	1500 nM	1070 nM	1460 nM	1090 nM	1850 nM	> 2000 nM	CC(=O)c1c([S+]([O-])Cc2ccc([S+]([O-])C(F)(F)F)cc2)[nH]c2c(Br)ccc(Cl)c2c1=O (centres unmarked) [Compound 64, 3-acetyl-8-bromo-5-chloro-2-((4-((trifluoromethyl)sulfinyl)benzyl)sulfinyl)quinolin-4(1H)-one]
1520 nM	1600 nM	> 2000 nM	1090 nM	1310 nM	1320 nM	1900 nM	> 2000 nM	CC(=O)c1c([S+]([O-])Cc2ccc(C(F)(F)F)cc2)[nH]c2c(Br)ccc(Cl)c2c1=O (centres unmarked) [Compound 70, 3-acetyl-8-bromo-5-chloro-2-((4-(trifluoromethyl)benzyl)sulfinyl)quinolin-4(1H)-one]
> 2000 nM	> 2000 nM	> 2000 nM	1250 nM	1510 nM	1650 nM	> 2000 nM	> 2000 nM	CC(=O)c1c([S+]([O-])Cc2ccc(OC(F)(F)F)cc2)[nH]c2c(Br)ccc(Cl)c2c1=O (centres unmarked) [Compound 71, 3-acetyl-8-bromo-5-chloro-2-((4-(trifluoromethoxy)benzyl)sulfinyl)quinolin-4(1H)-one]
1310 nM	> 2000 nM	1600 nM	> 2000 nM	> 2000 nM	> 2000 nM	> 2000 nM	> 2000 nM	CC(=O)c1c([S+]([O-])Cc2ccc(C#N)cc2)[nH]c2c(Br)ccc(Cl)c2c1=O (centres unmarked) [Compound 73, 4-(((3-acetyl-8-bromo-5-chloro-4-oxo-1,4-dihydroquinolin-2-yl)sulfinyl)methyl)benzonitrile]
> 2000 nM	> 2000 nM	> 2000 nM	> 2000 nM	> 2000 nM	> 2000 nM	1980 nM	> 2000 nM	CC(=O)c1c([S+]([O-])Cc2c(F)c(F)c(F)c(F)c2F)[nH]c2c(Br)ccc(Cl)c2c1=O (centres unmarked) [Compound 78, 3-acetyl-8-bromo-5-chloro-2-(((perfluorophenyl)methyl)sulfinyl)quinolin-4(1H)-one]
> 2000 nM	1220 nM	> 2000 nM	1310 nM	1250 nM	1750 nM	1170 nM	> 2000 nM	CC(=O)c1c([S+]([O-])Cc2ccc(I)cc2)[nH]c2c(Cl)ccc(Cl)c2c1=O (centres unmarked) [Compound 83, 3-acetyl-5,8-dichloro-2-((4-iodobenzyl)sulfinyl)quinolin-4(1H)-one]
700 nM	640 nM	980 nM	290 nM	1010 nM	1000 nM	520 nM	1060 nM	Cc1cc(C[S+]([O-])c2[nH]c3c(Br)ccc(Cl)c3c(=O)c2C(=O)C(C)C)no1 (centres unmarked) [Compound 95, 8-bromo-5-chloro-3-isobutyryl-2-(((5-methylisoxazol-3-yl)methyl)sulfinyl)quinolin-4(1H)-one]
